Values of other authors as cited in patent publication US9541834B2, “Ionic thermal acid generators for low temperature applications” (Rohm and Haas Electronic Materials LLC, priority 2012, dated 2017).

conditions: pKa of conjugate acid (BH)+ of the base of the TAG, aqueous solution, about room temperature

Q: With “3-Fluoropyridinium perfluorobutanesulfonate [3-Fluoropyridinium PFBuS]” as the compound, how does the “pKa (base)” value read?
A: 2.8

Q: With “Pyridazinium perfluorobutanesulfonate [Pyridazinium PFBuS]” as the compound, how does the “pKa (base)” value read?
A: 3.1

Q: For `N.O=S(=O)(O)C(F)(F)C(F)(F)C(F)(F)C(F)(F)F` [Ammonium PFBuS, Ammonium perfluorobutanesulfonate], which “pKa (base)” value is on record?
A: 9.25
